Data set [1] in a line: Inhibition of P-gp (unknown origin) expressed in MES-SA/DX5 cells assessed as cell growth inhibition after 3 days in presence of 200 nM paclitaxel by MTT assay.
Data set [2] can be described thus: Inhibition of P-gp (unknown origin) expressed in MCF7 cells assessed as increase in reversal of resistance to paclitaxel-induced cytotoxicity by measuring reduction in paclitaxel EC50 at 50 nM incubated for 72 hrs in presence of paclitaxel by SRB assay (Rvb = 11.5 nM).
Data set [3] can be described thus: Inhibition of P-gp (unknown origin) expressed in MES-SA/DX5 cells assessed as increase in reversal of resistance to paclitaxel-induced cytotoxicity by measuring reduction in paclitaxel EC50 at 50 nM incubated for 72 hrs in presence of paclitaxel by SRB assay (Rvb = 294.6 nM).

Turning to `COc1cc2c(cc1OC)CN(CCc1ccc(NC(=O)c3cc(OC)c(OC)cc3NC(=O)c3cnc4ccccc4c3)cc1)CC2`, the concentration giving a half-maximal response (EC50) in data set [1] came out at 16 nM.
With `COc1cc2c(cc1OC)CN(CCc1ccc(-n3nnc(-c4cc(OC)c(OC)cc4NC(=O)c4cnc5ccccc5c4)n3)cc1)CC2`, the EC50 is 75 nM in data set [1], 7.9 nM in data set [2] and 15 nM in data set [3].
For `COc1cc2c(cc1OC)CN(CCc1ccc(-n3nnc(-c4cc(OC)c(OC)cc4NC(=O)c4ccc5ccccc5n4)n3)cc1)CC2`, the values for the EC50 in data set [2] and in data set [3] were 12 nM and 110 nM, respectively.
Regarding `COc1cc2c(cc1OC)CN(CCc1ccc(-n3nnc(-c4cc(OC)c(OC)cc4NC(=O)c4cc5ccccc5cn4)n3)cc1)CC2`, the half-maximal effective concentration (EC50) amounted to 8.5 nM in data set [2] and 84 nM in data set [3].
On to `COc1cc2c(cc1OC)CN(CCc1ccc(-n3nnc(-c4cc(OC)c(OC)cc4NC(=O)c4cccc5cccnc45)n3)cc1)CC2`, for which the figures for the EC50 in data set [2] and in data set [3] were 5.4 nM and 69 nM, respectively.
As for `COc1cc2c(cc1OC)CN(CCc1ccc(-n3nnc(-c4cc(OC)c(OC)cc4NC(=O)c4nccc5ccccc45)n3)cc1)CC2`, the 50% effective concentration (EC50) in data set [2] came to 7.6 nM; in data set [3] it was 162 nM.
Turning to `COc1cc2c(cc1OC)CN(CCc1ccc(-n3nnc(-c4cc(OC)c(OC)cc4NC(=O)c4cncc5ccccc45)n3)cc1)CC2`, the EC50 in data set [2] came to 9.1 nM; in data set [3] it was 89 nM.
On the same counts, the results for `COc1cc2c(cc1OC)CN(CCc1ccc(-n3nnc(-c4cc(OC)c(OC)cc4NC(=O)c4cccnc4)n3)cc1)CC2` are 9.1 nM and 98 nM.
In the case of `COc1cc2c(cc1OC)CN(CCc1ccc(-n3nnc(-c4cc(OC)c(OC)cc4NC(=O)c4ccc5ccccc5c4)n3)cc1)CC2`, the results for the EC50 in data set [2] and in data set [3] were 10 nM and 113 nM, respectively.
In the case of `COc1cc2c(cc1OC)CN(CCc1ccc(-n3nnc(-c4cc(OC)c(OC)cc4NC(=O)c4cnccn4)n3)cc1)CC2`, the 50% effective concentration (EC50) in data set [2] was 9.1 nM; in data set [3], 98 nM.
Consider `COc1cc2c(cc1OC)CN(CCc1ccc(-n3nnc(-c4cc(OC)c(OC)cc4NC(=O)c4ccccc4)n3)cc1)CC2`, for which the figures for the EC50 in data set [2] and in data set [3] were 7.7 nM and 87 nM, respectively.
In the case of `COc1cc2c(cc1OC)CN(CCc1ccc(-n3nnc(-c4cc(OC)c(OC)cc4NC(=O)c4ccc(F)c(F)c4)n3)cc1)CC2`, the EC50 in data set [2] came to 10 nM; in data set [3] it was 80 nM.
For `COc1cc2c(cc1OC)CN(CCc1ccc(-n3nnc(-c4cc(OC)c(OC)cc4NC(=O)c4ccsc4)n3)cc1)CC2` the same measures were 6.4 nM and 66 nM.
On the same counts, the results for `COc1cc2c(cc1OC)CN(CCc1ccc(-n3nnc(-c4cc(OC)c(OC)cc4NC(=O)c4ccoc4)n3)cc1)CC2` are 10 nM and 84 nM.
`COc1cc2c(cc1OC)CN(CCc1ccc(-n3nnc(-c4cc(OC)c(OC)cc4NC(=O)c4coc5ccccc5c4=O)n3)cc1)CC2`: the EC50 came to 9 nM in data set [2] and 140 nM in data set [3].
On to `COc1cc2c(cc1OC)CN(CCc1ccc(-n3nnc(-c4cc(OC)c(OC)cc4NC(=O)c4cc(=O)c5c(OC)cccc5o4)n3)cc1)CC2`, for which the half-maximal effective concentration (EC50) in data set [2] is 7.4 nM; in data set [3] it was 5.9 nM.
For the compound `COc1cc2c(cc1OC)CN(CCc1ccc(-n3nnc(-c4cc(OC)c(OC)cc4NC(=O)c4cc(=O)c5cc(F)ccc5o4)n3)cc1)CC2`, the figures for the EC50 in data set [2] and in data set [3] were 8.1 nM and 7.5 nM, respectively.
For `COc1cc2c(cc1OC)CN(CCc1ccc(-n3nnc(-c4cc(OC)c(OC)cc4NC(=O)c4cc(=O)c5cc(C)ccc5o4)n3)cc1)CC2`, the values for the half-maximal effective concentration (EC50) in data set [2] and in data set [3] were 6.5 nM and 4 nM, respectively.
`COc1cc2c(cc1OC)CN(CCc1ccc(-n3nnc(-c4cc(OC)c(OC)cc4NC(=O)c4cc(=O)c5ccccc5o4)n3)cc1)CC2` [Encequidar]: the concentration giving a half-maximal response (EC50) in data set [1] is 13 nM; in data set [2], 7.9 nM; in data set [3], 4.9 nM.

The record behind these values is BindingDB's records for doi:10.1021/acs.jmedchem.0c01826 (Athenex, 2021).
